Data as given in patent publication US5532240A, “Condensed thiophene compound and pharmaceutical use thereof” (Yoshitomi Pharmaceutical Industries, Ltd., priority 1991, dated 1996).

Legend:
[1] = test system: conditioned avoidance response (CAR); conditions: administered with D2 antagonist; cited from earlier work
[2] = test system: catalepsy induced by haloperidol; conditions: preclinical; cited from earlier work
[3] = biological target: T1, serotonin 1A (5-HT1A) receptor (Rattus norvegicus, UniProt P19327); assay: Affinity for serotonin 1A receptor (tritiated 8-OH-DPAT binding); set-up: species or system Wistar rats; conditions: rat hippocampus crude synaptosomes; [3H]8-OH-DPAT 0.2 nM; 37° C., 12 min
T1 construct: A crude synaptosome fraction was separated from hippocampus; from tissue; host or cells: hippocampus of 9-10 week-old Wistar rats, crude synaptosome fraction
T1 sequence (P19327 1-422): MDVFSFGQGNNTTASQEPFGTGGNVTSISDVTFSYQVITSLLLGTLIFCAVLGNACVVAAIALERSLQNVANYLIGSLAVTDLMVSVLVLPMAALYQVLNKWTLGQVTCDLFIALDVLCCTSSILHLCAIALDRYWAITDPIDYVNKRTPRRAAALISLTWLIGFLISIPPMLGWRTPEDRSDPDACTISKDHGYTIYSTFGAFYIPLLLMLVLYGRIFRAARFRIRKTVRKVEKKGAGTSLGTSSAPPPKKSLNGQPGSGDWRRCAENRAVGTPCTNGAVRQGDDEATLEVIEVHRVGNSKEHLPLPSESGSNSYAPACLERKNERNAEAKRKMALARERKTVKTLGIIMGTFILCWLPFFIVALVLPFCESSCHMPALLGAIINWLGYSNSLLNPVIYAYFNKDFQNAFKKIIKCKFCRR
Method: Affinity for serotonin 1A receptor
A specific binding of serotonin 1A (5-HT1A) receptor was tested according to the method described in J. Neurochem. 44, 1685 (1985).
(§1) A crude synaptosome fraction was separated from hippocampus of 9-10 week-old Wistar rats, and suspended in 50 mM Tris-HCl buffer (pH 7.4) containing 1 mM manganese chloride for the experiment. The test compound at several concentrations and tritiated 8-hydroxy-2-dipropyl-aminotetralin(8-OH-DPAT, final concentration 0.2 nM) were added to the synaptosome suspension, and each mixture was incubated at 37° C. for 12 minutes. After the incubation, the mixture was filtered with suction through Whatman GF/B (trade mark) glass filter. The filter was washed with 50 mM Tris-HCl buffer (pH 7.7), and the radioactivity of the filter was measured by a liquid scintillation counter. Non-specific binding was determined in the presence of 10^-5 M serotonin (5-HT). The concentration necessary for 50% inhibition (IC50) was determined on a graph, and inhibition constant (Ki value) was calculated.

[4] = biological target: T2, serotonin 2 (5-HT2) receptor (Rattus norvegicus, UniProt P14842); assay: Affinity for serotonin 2 receptor (tritiated ketanserin binding); set-up: species or system Wistar rats; conditions: rat hippocampus crude synaptosomes; [3H]ketanserin 0.2 nM; 37° C., 20 min
T2 construct: A crude synaptosome fraction was separated from hippocampus; from tissue; host or cells: hippocampus of 9-10 week-old Wistar rats, crude synaptosome fraction
Method: Affinity for serotonin 2 receptor
A specific binding of serotonin 2 (5-HT2) receptor was tested according to the method described in Mol. Pharmacol. 21, 301 (1981).
as §1, with “7.7)” for “7.4) containing 1 mM manganese chloride”, “concentration” for “concentrations”, “ketanserin (final” for “8-hydroxy-2-dipropyl-aminotetralin(8-OH-DPAT, final”, “20” for “12”, “mianserin.” for “serotonin (5-HT).”, “value )” for “value)”

Acute toxicity = conditions: mouse, in vivo; oral, male ddY mice, observed 5 days; read-out: LD50 (50% lethal dose)
Excerpt: Male ddY mice weighing 20-28 g were used at 10 per group. They were orally administered with the compound of Example 24 and observed for 5 days after the administration.

dopamine 2 (D2) receptor = biological target: T3, dopamine 2 (D2) receptor (Rattus norvegicus, UniProt P61169); assay: Affinity for dopamine 2 receptor (tritiated spiperone binding); set-up: species or system Wistar rats; conditions: rat corpus striatum synaptosomes; [3H]spiperone 0.2 nM; 37° C., 20 min
T3 construct: A synaptosome fraction was separated from corpus striatum; from tissue; host or cells: corpus striatum of 9-10 week-old Wistar rats, synaptosome fraction
Method: Affinity for dopamine 2 receptor
A specific binding of dopamine 2 (D2) receptor was tested according to the method described in Eur. J. Pharmacol. 46, 377 (1977).
A synaptosome fraction was separated from corpus striatum of 9-10 week-old Wistar rats, and suspended in 50 mM Tris-HCl buffer (pH 7.1) containing 120 mM sodium chloride, 5 mM potassium chloride, 2 mM calcium chloride, 1 mM magnesium chloride, 10 μM pargyline and 0.1% ascorbic acid for the experiment.
as §1, with “The” for “A crude synaptosome fraction was separated from hippocampus of 9-10 week-old Wistar rats, and suspended in 50 mM Tris-HCl buffer (pH 7.4) containing 1 mM manganese chloride for the experiment. The”, “spiperone (final” for “8-hydroxy-2-dipropyl-aminotetralin(8-OH-DPAT, final”, “20” for “12”, “10^-4” for “10^-5”, “(±)-sulpiride.” for “serotonin (5-HT).”

[5] = test system: ergometrine-induced head-twitches; assay: Anti-ergometrine action (head-twitch); format: in vivo, male ddY mice; conditions: Mus musculus; oral, 60 min before 20 mg/kg i.p. ergometrine maleate; head-twitch vanished, Probit
Method: Male ddY mice at 12 per group were used for the experiment. The test compound was orally administered to the mice, and 60 minutes later, 20 mg/kg of ergometrine maleate was intraperitoneally administered. The amount of the test compound necessary to vanish the head-twitch reaction for 10 minutes from immediately after the administration of ergometrine maleate was calculated as ED50 value by Probit method.

[6] = test system: apomorphine-induced hyperactivity; assay: Anti-apomorphine action (in mouse); format: in vivo, male dd mice; conditions: oral, 60 min before 0.5 mg/kg s.c. apomorphine hydrochloride, movement lowered by 50%
Method: Anti-apomorphine action (in mouse)
Male dd mice at 3 per group were used for the experiment. The test compound was orally administered to the mice, and 60 minutes later, 0.5 mg/kg of apomorphine hydrochloride was subcutaneously administered. the movement for 20 minutes from immediately after the administration of apomorphine hydrochloride was measured using Valimex (Columbus, USA). Each group was tested four times, and the amount of the test compound necessary to lower the movement by 50% than that of a control group was calculated from a graph and taken as ED50.

T3 sequence (P61169 whole entry): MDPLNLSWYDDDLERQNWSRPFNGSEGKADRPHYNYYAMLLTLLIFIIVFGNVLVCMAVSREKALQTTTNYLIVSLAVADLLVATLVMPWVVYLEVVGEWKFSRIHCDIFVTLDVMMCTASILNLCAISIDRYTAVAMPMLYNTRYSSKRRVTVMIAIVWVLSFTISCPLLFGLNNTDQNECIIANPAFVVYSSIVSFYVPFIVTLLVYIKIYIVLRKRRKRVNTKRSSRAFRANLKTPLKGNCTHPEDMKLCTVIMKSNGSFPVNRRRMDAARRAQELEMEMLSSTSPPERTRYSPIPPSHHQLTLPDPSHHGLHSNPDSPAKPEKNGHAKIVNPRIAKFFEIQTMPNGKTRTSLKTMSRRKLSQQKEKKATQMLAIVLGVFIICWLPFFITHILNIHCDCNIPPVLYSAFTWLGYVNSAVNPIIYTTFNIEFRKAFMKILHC
T2 sequence (P14842 whole entry): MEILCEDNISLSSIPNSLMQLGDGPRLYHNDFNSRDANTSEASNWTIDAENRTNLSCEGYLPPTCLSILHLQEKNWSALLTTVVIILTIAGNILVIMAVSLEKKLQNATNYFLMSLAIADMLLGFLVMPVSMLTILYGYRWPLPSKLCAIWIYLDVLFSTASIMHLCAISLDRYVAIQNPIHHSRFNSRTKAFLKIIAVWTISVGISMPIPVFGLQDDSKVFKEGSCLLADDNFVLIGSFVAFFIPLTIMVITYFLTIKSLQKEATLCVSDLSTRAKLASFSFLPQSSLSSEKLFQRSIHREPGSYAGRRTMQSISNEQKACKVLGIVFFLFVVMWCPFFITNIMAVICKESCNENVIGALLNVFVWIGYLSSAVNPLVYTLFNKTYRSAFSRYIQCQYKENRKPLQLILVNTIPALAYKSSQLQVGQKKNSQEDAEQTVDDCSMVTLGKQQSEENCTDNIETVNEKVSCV

SMILES | inhibition of conditioned avoidance response (CAR) [1] | effect on catalepsy induced by haloperidol [2] | Ki [3] [nM] | Ki [4] [nM] | LD50 at 120 h (Acute toxicity) [mg/kg] | Ki (dopamine 2 (D2) receptor) [nM] | ED50 [5] [mg/kg] | ED50 [6] [mg/kg]
CCCN(CCC)C1CCc2cccc(O)c2C1 (centres unmarked) [8-OH DPAT, 8-hydroxy-2-dipropyl-aminotetralin] | inhibit conditioned avoidance response (CAR) more potent than that of D2 antagonist only | reverse catalepsy induced by haloperidol |  |  |  |  |  | 
CC(=O)N1CCc2c(sc(C)c2CCN2CCC(c3noc4cc(F)ccc34)CC2)C1 [Example 24, 6-acetyl-3-(2-(4-(6-fluoro-1,2-benzisoxazol-3-yl)piperidin-1-yl)ethyl)-4,5,6,7-tetrahydro-2-methylthieno[2,3-c]pyridine] |  |  | 32 | 0.062 | 205 | 0.46 | 0.37 | 0.39
